The values below come from ChEMBL document CHEMBL5303573, “Mapping human microbiome drug metabolism by gut bacteria and their genes” (Nature, 2019).

Molecules are shown by their SMILES.

The nature of one data set: The drug is tested on Clostridium sp. strain: fecal isolate for biotransformation. The drug concentrations were measured before and after a 12-h incubation by liquid-chromatography-coupled mass spectrometry (LC–MS). The conditions noted are these: 2 µM.
`Cc1nc(Nc2ncc(C(=O)Nc3c(C)cccc3Cl)s2)cc(N2CCN(CCO)CC2)n1.O` [DASATINIB]: the “Bacterial Biotransformation” value is given as “Compound metabolized”.
The same measure, in the same setting: to `CC(=O)O[C@]1(C(C)=O)CC[C@H]2[C@@H]3C=C(Cl)C4=CC(=O)[C@@H]5C[C@@H]5[C@]4(C)[C@H]3CC[C@@]21C` [CYPROTERONE ACETATE] belongs “Compound metabolized”.

For a further data set the following is noted: bifidobacterium adolescentis, 12 h, 2 µM.
Description: The drug is tested on Bifidobacterium adolescentis strain: ATCC 15703 for biotransformation. The drug concentrations were measured before and after a 12-h incubation by liquid-chromatography-coupled mass spectrometry (LC–MS)
In the case of `Cc1nc(Nc2ncc(C(=O)Nc3c(C)cccc3Cl)s2)cc(N2CCN(CCO)CC2)n1.O` [DASATINIB], the “Bacterial Biotransformation” value is given as “Compound metabolized”.
Same read-out and setting: under `CC(=O)O[C@]1(C(C)=O)CC[C@H]2[C@@H]3C=C(Cl)C4=CC(=O)[C@@H]5C[C@@H]5[C@]4(C)[C@H]3CC[C@@]21C` [CYPROTERONE ACETATE] stands “Compound NOT metabolized”.

Another data set is described as follows: The drug is tested on Enterococcus faecalis strain: V583 for biotransformation. The drug concentrations were measured before and after a 12-h incubation by liquid-chromatography-coupled mass spectrometry (LC–MS). The conditions noted are these: 2 µM.
`Cc1nc(Nc2ncc(C(=O)Nc3c(C)cccc3Cl)s2)cc(N2CCN(CCO)CC2)n1.O` [DASATINIB]: the “Bacterial Biotransformation” value is given as “Compound NOT metabolized”.
Still for that read-out and setting: under `CC(=O)O[C@]1(C(C)=O)CC[C@H]2[C@@H]3C=C(Cl)C4=CC(=O)[C@@H]5C[C@@H]5[C@]4(C)[C@H]3CC[C@@]21C` [CYPROTERONE ACETATE] stands “Compound NOT metabolized”.

A further data set is described as follows: The drug is tested on Escherichia coli strain: BW25113 for biotransformation. The drug concentrations were measured before and after a 12-h incubation by liquid-chromatography-coupled mass spectrometry (LC–MS). The conditions noted are these: 2 µM.
Consider `Cc1nc(Nc2ncc(C(=O)Nc3c(C)cccc3Cl)s2)cc(N2CCN(CCO)CC2)n1.O` [DASATINIB], for which the “Bacterial Biotransformation” value is recorded as “Compound NOT metabolized”.
On the same count and under the same terms, to `CC(=O)O[C@]1(C(C)=O)CC[C@H]2[C@@H]3C=C(Cl)C4=CC(=O)[C@@H]5C[C@@H]5[C@]4(C)[C@H]3CC[C@@]21C` [CYPROTERONE ACETATE] belongs “Compound metabolized”.

The conditions of the next data set: bacteroides fragilis, 12 h, 2 µM.
Description: The drug is tested on Bacteroides fragilis strain: 3397 (T10) for biotransformation. The drug concentrations were measured before and after a 12-h incubation by liquid-chromatography-coupled mass spectrometry (LC–MS)
On to `Cc1nc(Nc2ncc(C(=O)Nc3c(C)cccc3Cl)s2)cc(N2CCN(CCO)CC2)n1.O` [DASATINIB], for which the “Bacterial Biotransformation” value was “Compound metabolized”.

For the next data set the following is noted: bacteroides thetaiotaomicron, 12 h, 2 µM.
Description: The drug is tested on Bacteroides thetaiotaomicron strain: VPI-5482 for biotransformation. The drug concentrations were measured before and after a 12-h incubation by liquid-chromatography-coupled mass spectrometry (LC–MS)
For the compound `Cc1nc(Nc2ncc(C(=O)Nc3c(C)cccc3Cl)s2)cc(N2CCN(CCO)CC2)n1.O` [DASATINIB], the “Bacterial Biotransformation” value is reported as “Compound NOT metabolized”.

The next data set in a line: The drug is tested on Providencia rettgeri strain: DSM1131 for biotransformation. The drug concentrations were measured before and after a 12-h incubation by liquid-chromatography-coupled mass spectrometry (LC–MS). The data set is classed as ADME. Further details: dose 2 uM, timepoint 0 vs 12 hours. The conditions noted are these: 2 µM.
In the case of `Cc1nc(Nc2ncc(C(=O)Nc3c(C)cccc3Cl)s2)cc(N2CCN(CCO)CC2)n1.O` [DASATINIB], the “Bacterial Biotransformation” value is reported as “Compound NOT metabolized”.
The same measure, in the same setting: under `CC(=O)O[C@]1(C(C)=O)CC[C@H]2[C@@H]3C=C(Cl)C4=CC(=O)[C@@H]5C[C@@H]5[C@]4(C)[C@H]3CC[C@@]21C` [CYPROTERONE ACETATE] stands “Compound NOT metabolized”.

The next data set can be described thus: The drug is tested on Blautia hansenii strain: DSM20583 for biotransformation. The drug concentrations were measured before and after a 12-h incubation by liquid-chromatography-coupled mass spectrometry (LC–MS). The conditions noted are these: 2 µM.
Consider `Cc1nc(Nc2ncc(C(=O)Nc3c(C)cccc3Cl)s2)cc(N2CCN(CCO)CC2)n1.O` [DASATINIB], for which the “Bacterial Biotransformation” value is given as “Compound metabolized”.
The same measure, in the same setting: under `CC(=O)O[C@]1(C(C)=O)CC[C@H]2[C@@H]3C=C(Cl)C4=CC(=O)[C@@H]5C[C@@H]5[C@]4(C)[C@H]3CC[C@@]21C` [CYPROTERONE ACETATE] stands “Compound metabolized”.

A short description of a further data set: The drug is tested on Clostridium sporogenes strain: ATCC15579 for biotransformation. The drug concentrations were measured before and after a 12-h incubation by liquid-chromatography-coupled mass spectrometry (LC–MS). The conditions noted are these: 2 µM.
Take `Cc1nc(Nc2ncc(C(=O)Nc3c(C)cccc3Cl)s2)cc(N2CCN(CCO)CC2)n1.O` [DASATINIB]: the “Bacterial Biotransformation” value is reported as “Compound NOT metabolized”.
Still for that read-out and setting: to `CC(=O)O[C@]1(C(C)=O)CC[C@H]2[C@@H]3C=C(Cl)C4=CC(=O)[C@@H]5C[C@@H]5[C@]4(C)[C@H]3CC[C@@]21C` [CYPROTERONE ACETATE] belongs “Compound metabolized”.

Another data set in a line: The drug is tested on Clostridium scindens strain: ATCC35704 for biotransformation. The drug concentrations were measured before and after a 12-h incubation by liquid-chromatography-coupled mass spectrometry (LC–MS). The conditions noted are these: 2 µM.
Consider `Cc1nc(Nc2ncc(C(=O)Nc3c(C)cccc3Cl)s2)cc(N2CCN(CCO)CC2)n1.O` [DASATINIB], for which the “Bacterial Biotransformation” value is “Compound metabolized”.
The same measure, in the same setting: under `CC(=O)O[C@]1(C(C)=O)CC[C@H]2[C@@H]3C=C(Cl)C4=CC(=O)[C@@H]5C[C@@H]5[C@]4(C)[C@H]3CC[C@@]21C` [CYPROTERONE ACETATE] stands “Compound metabolized”.

The conditions of a further data set: parabacteroides distasonis, 12 h, 2 µM.
Description: The drug is tested on Parabacteroides distasonis strain: ATCC8503 for biotransformation. The drug concentrations were measured before and after a 12-h incubation by liquid-chromatography-coupled mass spectrometry (LC–MS)
As for `Cc1nc(Nc2ncc(C(=O)Nc3c(C)cccc3Cl)s2)cc(N2CCN(CCO)CC2)n1.O` [DASATINIB], the “Bacterial Biotransformation” value is reported as “Compound metabolized”.
Still for that read-out and setting: to `CC(=O)O[C@]1(C(C)=O)CC[C@H]2[C@@H]3C=C(Cl)C4=CC(=O)[C@@H]5C[C@@H]5[C@]4(C)[C@H]3CC[C@@]21C` [CYPROTERONE ACETATE] belongs “Compound metabolized”.

Another data set is described as follows: The drug is tested on Bifidobacterium breve strain: DSM20213 for biotransformation. The drug concentrations were measured before and after a 12-h incubation by liquid-chromatography-coupled mass spectrometry (LC–MS). The conditions noted are these: 2 µM.
For the compound `Cc1nc(Nc2ncc(C(=O)Nc3c(C)cccc3Cl)s2)cc(N2CCN(CCO)CC2)n1.O` [DASATINIB], the “Bacterial Biotransformation” value is given as “Compound NOT metabolized”.
Still for that read-out and setting: to `CC(=O)O[C@]1(C(C)=O)CC[C@H]2[C@@H]3C=C(Cl)C4=CC(=O)[C@@H]5C[C@@H]5[C@]4(C)[C@H]3CC[C@@]21C` [CYPROTERONE ACETATE] belongs “Compound NOT metabolized”.

Another data set can be described thus: The drug is tested on Ruminococcus lactaris strain: ATCC29176 for biotransformation. The drug concentrations were measured before and after a 12-h incubation by liquid-chromatography-coupled mass spectrometry (LC–MS). The conditions noted are these: 2 µM.
Take `Cc1nc(Nc2ncc(C(=O)Nc3c(C)cccc3Cl)s2)cc(N2CCN(CCO)CC2)n1.O` [DASATINIB]: the “Bacterial Biotransformation” value is given as “Compound NOT metabolized”.
The same measure, in the same setting: to `CC(=O)O[C@]1(C(C)=O)CC[C@H]2[C@@H]3C=C(Cl)C4=CC(=O)[C@@H]5C[C@@H]5[C@]4(C)[C@H]3CC[C@@]21C` [CYPROTERONE ACETATE] belongs “Compound NOT metabolized”.

A further data set is described as follows: The drug is tested on Bacteroides caccae strain: ATCC43185 for biotransformation. The drug concentrations were measured before and after a 12-h incubation by liquid-chromatography-coupled mass spectrometry (LC–MS). The conditions noted are these: 2 µM.
For `Cc1nc(Nc2ncc(C(=O)Nc3c(C)cccc3Cl)s2)cc(N2CCN(CCO)CC2)n1.O` [DASATINIB], the “Bacterial Biotransformation” value is “Compound NOT metabolized”.
With `CC(=O)O[C@]1(C(C)=O)CC[C@H]2[C@@H]3C=C(Cl)C4=CC(=O)[C@@H]5C[C@@H]5[C@]4(C)[C@H]3CC[C@@]21C` [CYPROTERONE ACETATE], the “Bacterial Biotransformation” value was “Compound NOT metabolized”.

The next data set in a line: The drug is tested on Bacteroides cellulosilyticus strain: DSM14838 for biotransformation. The drug concentrations were measured before and after a 12-h incubation by liquid-chromatography-coupled mass spectrometry (LC–MS). The conditions noted are these: 2 µM.
On to `Cc1nc(Nc2ncc(C(=O)Nc3c(C)cccc3Cl)s2)cc(N2CCN(CCO)CC2)n1.O` [DASATINIB], for which the “Bacterial Biotransformation” value is “Compound NOT metabolized”.
Same read-out and setting: to `CC(=O)O[C@]1(C(C)=O)CC[C@H]2[C@@H]3C=C(Cl)C4=CC(=O)[C@@H]5C[C@@H]5[C@]4(C)[C@H]3CC[C@@]21C` [CYPROTERONE ACETATE] belongs “Compound metabolized”.

The nature of a further data set: The drug is tested on Bacteroides vulgatus strain: ATCC8482 for biotransformation. The drug concentrations were measured before and after a 12-h incubation by liquid-chromatography-coupled mass spectrometry (LC–MS). The conditions noted are these: phocaeicola vulgatus, 2 µM.
For `CC(=O)O[C@]1(C(C)=O)CC[C@H]2[C@@H]3C=C(Cl)C4=CC(=O)[C@@H]5C[C@@H]5[C@]4(C)[C@H]3CC[C@@]21C` [CYPROTERONE ACETATE], the “Bacterial Biotransformation” value was “Compound metabolized”.

The conditions of another data set: parabacteroides johnsonii, 12 h, 2 µM.
Description: The drug is tested on Parabacteroides johnsonii strain: DSM18315 for biotransformation. The drug concentrations were measured before and after a 12-h incubation by liquid-chromatography-coupled mass spectrometry (LC–MS)
Regarding `Cc1nc(Nc2ncc(C(=O)Nc3c(C)cccc3Cl)s2)cc(N2CCN(CCO)CC2)n1.O` [DASATINIB], the “Bacterial Biotransformation” value was “Compound metabolized”.
Still for that read-out and setting: to `CC(=O)O[C@]1(C(C)=O)CC[C@H]2[C@@H]3C=C(Cl)C4=CC(=O)[C@@H]5C[C@@H]5[C@]4(C)[C@H]3CC[C@@]21C` [CYPROTERONE ACETATE] belongs “Compound metabolized”.

The next data set is described as follows: The drug is tested on Odoribacter splanchnicus strain: fecal isolate for biotransformation. The drug concentrations were measured before and after a 12-h incubation by liquid-chromatography-coupled mass spectrometry (LC–MS). The conditions noted are these: 2 µM.
Regarding `Cc1nc(Nc2ncc(C(=O)Nc3c(C)cccc3Cl)s2)cc(N2CCN(CCO)CC2)n1.O` [DASATINIB], the “Bacterial Biotransformation” value is “Compound NOT metabolized”.
The same measure, in the same setting: under `CC(=O)O[C@]1(C(C)=O)CC[C@H]2[C@@H]3C=C(Cl)C4=CC(=O)[C@@H]5C[C@@H]5[C@]4(C)[C@H]3CC[C@@]21C` [CYPROTERONE ACETATE] stands “Compound metabolized”.

The conditions of another data set: segatella copri, 12 h, 2 µM.
Description: The drug is tested on Prevotella copri strain: DSM18205 for biotransformation. The drug concentrations were measured before and after a 12-h incubation by liquid-chromatography-coupled mass spectrometry (LC–MS)
Turning to `Cc1nc(Nc2ncc(C(=O)Nc3c(C)cccc3Cl)s2)cc(N2CCN(CCO)CC2)n1.O` [DASATINIB], the “Bacterial Biotransformation” value is listed as “Compound metabolized”.
Same read-out and setting: to `CC(=O)O[C@]1(C(C)=O)CC[C@H]2[C@@H]3C=C(Cl)C4=CC(=O)[C@@H]5C[C@@H]5[C@]4(C)[C@H]3CC[C@@]21C` [CYPROTERONE ACETATE] belongs “Compound NOT metabolized”.

For another data set the following is noted: anaerostipes sp., 12 h, 2 µM.
Description: The drug is tested on Anaerostipes sp. strain: fecal isolate for biotransformation. The drug concentrations were measured before and after a 12-h incubation by liquid-chromatography-coupled mass spectrometry (LC–MS)
For the compound `Cc1nc(Nc2ncc(C(=O)Nc3c(C)cccc3Cl)s2)cc(N2CCN(CCO)CC2)n1.O` [DASATINIB], the “Bacterial Biotransformation” value was “Compound metabolized”.
As for `CC(=O)O[C@]1(C(C)=O)CC[C@H]2[C@@H]3C=C(Cl)C4=CC(=O)[C@@H]5C[C@@H]5[C@]4(C)[C@H]3CC[C@@]21C` [CYPROTERONE ACETATE], the “Bacterial Biotransformation” value is on record as “Compound NOT metabolized”.
